Measurements published in patent publication US4954509A, “Isoquinoline derivatives and their use as analgesics” (Dr. Lo. Zambeletti S.p.A., priority 1988, dated 1990).
Structures can show the parent of a compound that is named as a salt. Where two headings read alike, the source gives them in different places.

What was measured:
mice [1] = assay: p-phenylquinone-induced abdominal writhing test in mice; type: in vivo, mouse (male Charles River, Swiss Strain); conditions: Mus musculus, sc, 20 min; subcutaneous; calculated as the free base; 20 min pretreatment, p-phenylquinone 2 mg/Kg i.p.
Method: (A) P-phenylquinone-induced abdominal writhing test in mice
The methodology employed is based on that described by Sigmund et al, Proc. Soc. Exptl. Biol. 95, 729/1957, modified by Milne and Twomey, Agents and Actions, 10, 31/1980.
Male Charles River mice (Swiss Strain), 25-36g body weight, were used. Animals were allowed food and water ad libitum and were randomized into groups of 10 prior to experimentation. Test compounds were dissolved in either distilled water or distilled water plus 0.1 M AMS, and administered by the subcutaneous route in a final volume of 10 ml/Kg. Control animals received 10 ml/Kg of the appropriate vehicle alone. Following a pretreatment period of 20 min., mice were injected intraperitoneally with p-phenylquinone, 2 mg/Kg at 37° C. in a final volume of […]. […] During this period the number of abdominal writhing responses per animal were recorded where writhing consists of an intermittent contraction of the abdomen associated with hind leg extension.
The degree of antinociceptive protection afforded by the test compound was determined as the mean number of writhing responses observed in the treated group (T) expressed as a percentage of the mean number of writhing responses in the control group (C) according to the following formula:
[1-(T/C]×100%=% graded protection

mice [2] = assay: tail-flick test in mice; type: in vivo, mouse (male Charles River, Swiss Strain); conditions: Mus musculus, sc, 0.5 h, subcutaneous; calculated as the free base; 30 min pretreatment
Method: (B) Tail-flick test in mice
The methodology employed is based on that described by D'Amour and Smith, J. Pharmacol. Exp. Ther. 72, 74/1941.
Male Charles River mice (Swiss Strain), 22-34g body weight were used. Animals were allowed food and water ad libitum and were randomized into groups of 10 prior to experimentation.
Test compounds were dissolved in either distilled water or distilled water plus 0.1 M AMS and administered by the subcutaneous route in a final volume of 10 ml/Kg. Control animals received 10 ml/kg of the appropriate vehicle alone. Following a pretreatment period of 30 min., the mice were again placed under the heat source and the reaction tine re-determined.
Percentage quantal protection was determined as the number of mice in which the reaction time was doubled compared to pretreatment values, expressed as a percentage of the total number of mice in the group.

KAPPA opiate receptor = biological target: T1, KAPPA opiate receptor (Cavia porcellus, UniProt P41144); assay: opiate receptors binding, KAPPA (3H-Ethyl Ketocyclazocine, guinea pig brain homogenate)
T1 construct: fresh guinea pig brain homogenate; from tissue; host or cells: guinea pig whole brain without cerebellum, fresh homogenate
T1 sequence (P41144 whole entry): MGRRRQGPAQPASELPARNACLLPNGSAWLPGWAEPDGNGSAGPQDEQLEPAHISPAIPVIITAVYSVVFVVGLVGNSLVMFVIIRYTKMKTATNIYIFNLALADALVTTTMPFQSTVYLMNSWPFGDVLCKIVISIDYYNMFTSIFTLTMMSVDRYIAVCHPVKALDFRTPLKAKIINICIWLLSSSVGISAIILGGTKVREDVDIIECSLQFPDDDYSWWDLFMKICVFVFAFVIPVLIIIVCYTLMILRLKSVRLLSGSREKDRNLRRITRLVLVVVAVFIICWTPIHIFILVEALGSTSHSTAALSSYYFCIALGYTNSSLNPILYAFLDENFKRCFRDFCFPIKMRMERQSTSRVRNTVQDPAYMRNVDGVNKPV
Method: Radio receptor binding to μ and K sites is performed on fresh guinea pig brain homogenate prepared according to Kosterlitz. (1981).
(§1) Whole brain without cerebellum is homogenized in 50 mM, Tris-buffer (pH 7.4 at 0° C.) and centrifuged at 49,000×g×10 min.
The pellet is then resuspended in the same buffer, incubated at 37° C. for 45 min. and centrifuged again. 1.9ml of the final homogenate (1:100 in Tris-pH 7.4, 0° C.) is used for the binding assay. Binding to […] sites (Magnan J., 1982) 1 3H [D-Ala2, MePhe4, Gly-o15]Enkephalin (3H-DAGO), an
is determined in the presence of 10-6M Naloxone. 1 Binding to K sites (Magnan J., 1982)
The binding to the K-sites is performed using 3H-Ethyl Ketocyclazocine, a non-selective benzomorphan compound which binds to μ, δ and K-sites, in the presence of 100nM of unlabelled DAGO and 100nM of the enkephalin analogue [DAla^2 -DLeu^5 ]Enkephalin (DADLE), to prevent μ and δ binding respectively.
Final homogenate with solutions of the cold ligand and of the labelled ligand is incubated for 40 min. at 25° C., filtered through Whatman GF/C glass filter discs and washed.
The radioactivity bound to the filters is counted by liquid scintillation spectrophotometry.
The non-specific binding is determined in the presence of 500nM of the benzomorphan non-selective compound Mr 2266.
The equilibrium dissociation constant (KD) and the maximum binding capacity (Bmax) are determined from the analysis of saturation curves, while the inhibition constant (Ki) is determined from the analysis of competition experiments (Hill 1910; Scatchard 1949; Cheng and Prusoff 1973; Gillan et al. 1980).

MU opiate receptor = biological target: T2, MU opiate receptor (Cavia porcellus, UniProt A0ACM8Q262); assay: opiate receptors binding, MU (3H-DAGO, guinea pig brain homogenate)
T2 construct: 3H-DAGO displacement
T2 sequence (A0ACM8Q262 1-400): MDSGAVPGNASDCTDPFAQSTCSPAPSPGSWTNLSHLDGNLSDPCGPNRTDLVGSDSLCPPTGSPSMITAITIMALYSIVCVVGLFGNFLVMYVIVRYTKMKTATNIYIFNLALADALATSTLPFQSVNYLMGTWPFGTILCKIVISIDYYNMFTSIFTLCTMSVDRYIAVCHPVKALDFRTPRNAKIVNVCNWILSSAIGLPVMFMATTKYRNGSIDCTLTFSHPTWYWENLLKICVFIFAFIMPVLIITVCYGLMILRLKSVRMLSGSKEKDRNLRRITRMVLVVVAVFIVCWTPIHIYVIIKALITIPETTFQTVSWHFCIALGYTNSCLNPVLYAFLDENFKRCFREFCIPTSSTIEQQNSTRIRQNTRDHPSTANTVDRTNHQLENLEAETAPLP
Method: Radio receptor binding to μ and K sites is performed on fresh guinea pig brain homogenate prepared according to Kosterlitz.
as §1
The pellet is then resuspended in the same buffer, incubated at 37° C. for 45 min. and centrifuged again. 1.9ml of the final homogenate (1:100 in Tris-pH 7.4, 0° C.) is used for the binding assay.
The filters are then dryed, solubilized in Filtercount and the radioactivity monitored. Non specific binding
is determined in the presence of 10-6M Naloxone.

[3] = fresh guinea pig brain homogenate, 3H-Ethyl Ketocyclazocine with 100nM DAGO and 100nM DADLE, 25° C., 40 min, read-out: OPIATE RECEPTORS BINDING KAPPA Ki
[4] = read-out: OPIATE RECEPTORS BINDING MU Ki, fresh guinea pig brain homogenate, 25° C., 40 min
[5] = fresh guinea pig brain homogenate, 25° C., 40 min, read-out: OPIATE RECEPTORS BINDING MU Ki

C[C@@H]1Cc2ccccc2[C@H](CN2CCCC2)N1C(=O)Cc1ccc(Cl)c(Cl)c1 (relative stereo) [Example 1, 1-(pyrrolidin-1-yl)methyl-2-(3,4-dichlorophenyl)acetyl-3-methyl-1,2,3,4-tetrahydroisoquinoline hydrochloride 1/3 hydrate. Diastereoisomer CIS]
ED50 (mice [1]): 0.021 mg/kg | ED50 (mice [2]): 0.033 mg/kg | Ki (KAPPA opiate receptor; [3]): 2.65 nM | Ki (MU opiate receptor; [4]): 14.9 nM

C[C@@H]1CN(C(=O)Cc2ccc(Cl)c(Cl)c2)[C@@H](CN2CCCC2)c2ccccc21 (relative stereo) [Example 3, 1-(pyrrolidin-1-yl)methyl-2-(3,4-dichlorophenyl)acetyl-4-methyl-1,2,3,4-tetrahydroisoquinoline hydrochloride. Diastereoisomer TRANS]
ED50 (mice [1]): 0.036 mg/kg | ED50 (mice [2]): 0.046 mg/kg | Ki (KAPPA opiate receptor; [3]): 4.79 nM | Ki (MU opiate receptor; [4]): 122 nM

C[C@H]1CN(C(=O)Cc2ccc(Cl)c(Cl)c2)[C@@H](CN2CCCC2)c2ccccc21 (relative stereo) [Example 4, 1-(pyrrolidin-1-yl)methyl-2-(3,4-dichlorophenyl)acetyl-4-methyl-1,2,3,4-tetrahydroisoquinoline hydrochloride. Diastereoisomer CIS]
ED50 (mice [1]): 0.282 mg/kg | ED50 (mice [2]): 0.459 mg/kg | Ki (KAPPA opiate receptor; [3]): 14 nM | Ki (MU opiate receptor; [4]): 1150 nM

CC1Cc2ccccc2C(CN2CCCC2)N1C(=O)Cc1ccc(Cl)c(Cl)c1 (single isomer, unassigned) [Example 42, (-)-1-(pyrrolidin-1-yl)methyl-2-(3,4-dichlorophenyl)acetyl-3-methyl-1,2,3,4-tetrahydroisoquinoline D(-) tartrate]
ED50 (mice [1]): 0.01 mg/kg | ED50 (mice [2]): 0.021 mg/kg | Ki (KAPPA opiate receptor; [3]): 2.23 nM | Ki (MU opiate receptor; [4]): 11.1 nM

O=C(Cc1ccc(Cl)c(Cl)c1)N1CCc2c(O)cccc2C1CN1CCCC1 (stereo not drawn) [Example 5, 1-(pyrrolidin-1-yl)methyl-2-(3,4-dichlorophenyl)acetyl-5-hydroxy-1,2,3,4-tetrahydroisoquinoline]
ED50 (mice [1]): 0.005 mg/kg | ED50 (mice [2]): 0.009 mg/kg | Ki (KAPPA opiate receptor; [3]): 0.423 nM | Ki (MU opiate receptor; [4]): 0.69 nM

COc1cccc2c1CCN(C(=O)Cc1ccc(Cl)c(Cl)c1)C2CN1CCCC1 (stereo not drawn) [Example 6, 1-(pyrrolidin-1-Yl)methyl-2-(3,4-dichlorophenyl)acetyl-5-methoxy-1,2,3,4-tetrahydroisoquinoline]
ED50 (mice [1]): 0.047 mg/kg | ED50 (mice [2]): 0.054 mg/kg | Ki (KAPPA opiate receptor): 4.01 nM | Ki (MU opiate receptor; [5]): 277 nM

CN(C)CC1c2cccc(O)c2CCN1C(=O)Cc1ccc(Cl)c(Cl)c1 (stereo not drawn) [Example 10, 1-dimethylaminomethyl-2-(3,4-dichlorophenyl) acetyl-5-hydroxy-1,2,3,4-tetrahydroisoquinoline.]
ED50 (mice [2]): 0.088 mg/kg | Ki (KAPPA opiate receptor; [3]): 0.42 nM | Ki (MU opiate receptor; [4]): 3.67 nM

O=C(Cc1ccc(Cl)c(Cl)c1)N1CCc2cc(O)ccc2C1CN1CCCC1 (stereo not drawn) [Example 16, 1-(pyrrolidin-1-yl)methyl-2-(3,4-dichlorophenyl)acetyl-6-hydroxy-1,2,3,4-tetrahydroisoquinoline.]
ED50 (mice [2]): 0.24 mg/kg | Ki (KAPPA opiate receptor): 1.54 nM | Ki (MU opiate receptor; [5]): 102 nM

O=C(Cc1ccc(Cl)c(Cl)c1)N1CCc2cccc(Cl)c2C1CN1CCCC1 (stereo not drawn) [Example 27, 1-(pyrrolidin-1-yl)methyl-2-(3,4-dichlorophenyl)acetyl-8-chloro-1,2,3,4-tetrahydroisoquinoline hydrochloride 1/4hydrate]
ED50 (mice [2]): 0.092 mg/kg | Ki (KAPPA opiate receptor): 5.46 nM | Ki (MU opiate receptor; [5]): 369 nM
